Assay: Stability of amorphous rifaximin on storage, followed by PXRD spectroscopy
Type: physicochemical
Conditions: as indicated by the PXRD spectroscopy

effect of external parameters such as ambient humidity (ambient humidity): unaffected
Structure (SMILES): CO[C@H]1/C=C/O[C@@]2(C)Oc3c(C)c(O)c4c(O)c(c5c(nc6cc(C)ccn65)c4c3C2=O)NC(=O)/C(C)=C\C=C\[C@H](C)[C@H](O)[C@@H](C)[C@@H](O)[C@@H](C)[C@H](OC(C)=O)[C@@H]1C [amorphous rifaximin, (2S,16Z,18E,20S,21S,22R,23R,24R,25S,26S,27S,28E)-5,6,21,23,25-pentahydroxy-27-methoxy-2,4,11,16,20,22,24,26-octamethyl-2,7-(epoxypentadeca-[1,11,13]trienimino)benzofuro[4,5-e]pyrido[1,2-α]-benzimidazole-1,15(2H)-dione, 25-acetate]
chemical and polymorphic stability on storage (on storage): very stable chemically and polymorphically on storage

— patent US8759513B2, “Polymorphic form of rifaximin and process for its preparation” (Sequent Scientific Limited, priority 2011, dated 2014)
